Laboratory results from US6875759B1, “Substituted guanidines and the use thereof” (Kadmus Pharmaceuticals, priority 1999, dated 2005).
Entries after “also recorded” stand apart in the source; their conditions may differ.

Tests used:
[1] = test system: human prostate (DU14) cancer cells; assay type: in vivo; settings: daily i.p. for five days
Source text: FIG. 2A is a bar graph which depicts the effect of the compound of Example 8 (1-[N,N′-di-p-tolyl)amidino]-4-(trans-1′-cinnamyl)piperizine) on human prostate cancer in BDF/1 mice using the sub-renal capsule assay.
(§1) Human cancer cells can be grown in the sub-renal capsule of immuno-competent mice where, for a limited period of time, they escape detection by the mouse's immune system. Thus, the sub-renal capsule assay provides a convenient system to study the effect of drugs on the growth of tumor cells in vivo (Bogden, A. E., et al., Exp. Cell Biol. 47:281 (1979)). Briefly, female BDF mice weighing 18-20g were anesthetized, the left kidney exteriorized and a small nick was made in the kidney capsule for implantation of tumor cells. Approximately 1×10^6 human prostate (DU14) or pancreatic cancer (HS766T) cells were prepared as a fibrinogen-jelled pellet (Stratton, J. A., et al., Gynecol. Oncol. 19:336 (1984); Stratton, J. A., et al., Gynecol. Oncol. 30:416 (1988)) and implanted beneath the renal capsule. […] One day after the final injection, the animals were killed and the tumor volume was measured. Tumor growth was determined by subtracting the initial size of the implant from the size of the implant size following treatment (Stratton, J. A., et al., Gynecol Oncol. 19:336 (1984); Stratton, J. A., et al., Gynecol. Oncol. 30:416 (1988)).

[2] = test system: human pancreatic cancer (HS766T) cells; assay type: in vivo; settings: daily i.p. for five days
Source text: FIG. 2B is a bar graph which depicts the effect of the compound of Example 8 on human pancreatic cancer in BDF/1 mice using the sub-renal capsule assay.
as §1

[3] = test system: DU145 prostate carcinoma xenografts; test: Anti-tumor activity in athymic mice bearing DU145 prostate carcinoma; assay type: in vivo, mouse; settings: male nude mice; 12.5 mg/kg/d i.p. daily for two weeks; FIG. 3; 12.5 mg/kg/day
Experimental: FIG. 3 is a graph showing the effect of the compound of Example 8, at a dose of zero mg/kg (filled circles) and at a dose of 12.5 mg/kg (open circles), on human prostate cancer xenographs in BALB/C/NU mice.
DU145 tumor cells were injected subcutaneously into the flank of male nude mice (day 0). Palpable tumors develop within 14 days at which time the animals were treated for two weeks with daily intraperitoneal injections of either the compound of Example 8 or the control vehicle. Tumors were measured every two days and volume of tumor was calculated using the formula: Tumor volume=length×[…] At the end of the study, tumors in control mice had nearly tripled in size. […] Mechanism of Action

[4] = test system: HS578T breast cancer cells; test: DNA fragmentation, TUNEL assay by flow cytometry; assay type: cell-based, human; settings: 12.5 or 25 μM for 24 hours
Experimental: FIGS. 4A-4C illustrate the effects of compound of Example 8 on HS578-T breast carcinoma cells. Cells were exposed to the compound at zero μM (FIG. 4A), 12.5 μM (FIG. 4B) or 25 μM (FIG. 4C) for 24 hours, and the degree of DNA fragmentation measured by flow cytometry using the TUNEL assay.
The TUNEL assay examines DNA fragmentation using flow cytometry to detect DNA that is labeled with fluorescein dUTP compared to the total nuclear DNA content of the cell as measured using propidium iodide. Human HS578T breast cancer cells were treated with either 12.5 or 25 μM of the compound of Example 8 for 24 hours. As cells undergo apoptosis, DNA fragmentation occurs in a relatively intact nucleus, giving rise to a higher fluorescent intensity (x-axis) with stable staining by propidium iodide (y-axis).

[5] = test system: human breast (HS578-T) cancer cells; test: Mitochondrial membrane depolarization, JC-1 flow cytometry, breast cancer cells; assay type: cell-based; settings: 25 μM, five hours following drug exposure
Experimental: FIGS. 5A-5C illustrate the effects of the compound of Example 8 on human breast cancer cells (HS578-T). Mitochondrial membrane depolarization was assessed by flow cytometry as measured by the fluorescence of cation, JC-1. Cells were exposed to 25 μM of the compound and fluorescence measured at: 0 hours (FIG. 5A), 2 hours (FIG. 5B) and 5 hours (FIG. 5C).
Mitochondrial membrane depolarization is an early event in apoptosis. […] These early changes in mitochondrial function can be detected using a fluorescent cation, JC-1, that emits a red color when sequestered in the mitochondria of healthy cells, or a green color when localized to the cytoplasm.
Human breast (HS578-T) and prostate (DU145) cancer cells were exposed to 25 μM of the compound of Example 8 for varying lengths of times. Both cell lines lost the capacity to sequester JC-1 in the mitochondrial compartment as indicated by a time-dependent increase in green vs. red fluorescence (FIGS. 5A-5F). In an attempt to better quantitate the results of these experiments, the scans were divided into quadrants. At time 0, greater than 90% of the dye was localized in the mitochondria in both breast and prostate cancer cells. By five hours following drug exposure, the mitochondria from the prostate and breast cells contained only 33% and 22% of the dye, respectively.

[6] = test system: caspase-3 (CPP-32); test: Caspase-3 activation, western blot of cytosolic fractions; assay type: cell-based, human; settings: breast cancer cells (HS578-T); 25 μM; 0-240 minutes
Experimental: FIG. 6 is an immunoblot illustrating the activation of caspase 3 in human breast cancer cells (HS578-T) exposed to 25 μM of the compound of Example 8. Cells were exposed to the compound for 0, 30, 60, 90, 150, and 240 minutes of treatment with peak activity occurring 90 minutes after drug addition.
When cells are induced to undergo apoptosis the cell death effector, caspase-3 (CPP-32), is cleaved and activated by proteolytic enzymes.

[7] = Mouse formalin test pain model, late phase; assay type: in vivo
Experimental: The formalin test was conducted using standard procedures (Hunskaar et al., J. Neurosci. Meth. 14:69-76 (1985). Mice (male CF-1, 20-25 g) were placed in Plexiglass jars for at least 1 hr to accommodate to the environment
The animals received either test drug at 5-50 mg/kg p.o. or the appropriate volume of vehicle (normal saline). Thirty minutes after p.o. dosing mice were injected with formalin (20 μl of 2.5% formaldehyde solution in saline) into the dorsal surface of the right hind paw.
All experiments were done in a blinded manner. The late phase of the formalin response was measured as licking/biting from 10-50 minutes after formalin injection. Differences between groups were analyzed by one-way analysis of variance (ANOVA), A P value ≦0.05 was considered significant. Reduction in the time spent licking/biting in the late phase of the formalin response is considered an indication of a reduction in chronic pain.

Cc1ccc(N=C(Nc2ccc(C)cc2)N2CCN(C/C=C/c3ccccc3)CC2)cc1 [Example 8, 1-[(N,N′-Di-p-tolyl)amidino]-(trans-1′-cinnamyl)piperizine]
inhibition of tumor growth ([1]; prostate cancer cell line in mouse sub-renal capsule): greater than 95% | effect on tumor growth (in words) ([1]; prostate implant, FIG. 2A): dose-dependent and highly significant inhibition of tumor growth | inhibition of tumor growth ([2]; pancreatic cancer cell line in mouse sub-renal capsule): greater than 95% | effect on tumor growth (in words) ([2]; pancreatic implant, FIG. 2B): dose-dependent and highly significant inhibition of tumor growth | tumor growth in xenograft (in words) [3]: active; also recorded: failed to grow | DNA fragmentation (TUNEL) [4]: pattern of DNA fragmentation characteristic of apoptosis | JC-1 dye contained in mitochondria [5]: 22% | processed (activated) caspase-3 (in words) [6]: time-dependent increase in processed caspase-3 | late phase pain versus control vehicle (post-hoc Newman-Kuels test) ([7]; 30 mg/kg orally): different from control vehicle at P<0.05 | late phase pain versus control vehicle (post-hoc Newman-Kuels test) ([7]; 50 mg/kg orally): different from control vehicle at P<0.05 | effect on general behavior of the animals ([7]; at the doses effective in the formalin test, p.o.): did not affect the general behavior | time spent licking, late phase of formalin response (in words) ([7]; oral administration, 5-50 mg/kg, male CF-1 mice): dose-dependent reduction in the time spent licking
